Test results reported in ChEMBL document CHEMBL5512692, “Colloidal Aggregation Confounds Cell-Based Covid-19 Antiviral Screens” (J Med Chem, 2024).

Tested on: SARS-CoV-2
Assay: Antiviral activity against SARS-CoV-2 pseudotyped lentivirus infected in HEK293 cells overexpressing EGFP-fused hACE2 coexpressing mCherry assessed as reduction in virus entry incubated for 40 mins by immunocytochemistry assay
Type: functional, organism-based
Conditions: Severe acute respiratory syndrome coronavirus 2, HEK293, 40 min

SMILES	EC50
C=C[C@@](C)(/C=C/c1ccc(O)cc1)CCC=C(C)C [BAKUCHIOL]	110 µM
CC(C)=CCc1c(O)ccc(C(=O)/C=C/c2ccc(O)cc2)c1O [ISOBAVACHALCONE]	51.5 µM
